Results: patent US20150031668A1, “CHROMAN DERIVATIVES AS TRPM8 INHIBITORS” (AMGEN INC., priority 2013, published 2015)

Biological target: T1, human TRPM8 (Homo sapiens, UniProt Q7Z2W7)
T1 construct: expressed in transfected cells; host or cells: Chinese hamster ovary (CHO) cells, T-REx tetracycline-inducible expression system (Invitrogen); co-transfected with pcDNA3.1 aequorin
Assay: Luminescence readout assay for measuring intracellular calcium (aequorin, CHO cells expressing human TRPM8; icilin, L-menthol or cold activation)
Format: cell-based
Conditions: CHO cells expressing human TRPM8, icilin activation (1 μM), aequorin luminescence; read-out: hTRPM8 IC50
Procedure: Luminescence Readout Assay for Measuring Intracellular Calcium
A stable Chinese hamster ovary cell line expressing human TRPM8 was generated using tetracycline inducible T-REx™ expression system from Invitrogen, Inc. (Carlsbad, Calif.). […] Twenty four hours before the assay, cells were seeded in 96-well plates and TRPM8 expression was induced with 0.5 μg/ml tetracycline. On the day of the assay, culture media was removed and cells were incubated with assay buffer
Potential antagonists were added 2.5 min prior to the addition of agonist, 1 μM icilin, 100 μM L-menthol, or 1 min prior to the addition of cold buffer (<10° C.). The luminescence was measured by a CCD camera based FLASH-luminometer built by Amgen, Inc. A cooling device attached to FLASH luminometer was used for cold activation.

T1 sequence (Q7Z2W7 whole entry): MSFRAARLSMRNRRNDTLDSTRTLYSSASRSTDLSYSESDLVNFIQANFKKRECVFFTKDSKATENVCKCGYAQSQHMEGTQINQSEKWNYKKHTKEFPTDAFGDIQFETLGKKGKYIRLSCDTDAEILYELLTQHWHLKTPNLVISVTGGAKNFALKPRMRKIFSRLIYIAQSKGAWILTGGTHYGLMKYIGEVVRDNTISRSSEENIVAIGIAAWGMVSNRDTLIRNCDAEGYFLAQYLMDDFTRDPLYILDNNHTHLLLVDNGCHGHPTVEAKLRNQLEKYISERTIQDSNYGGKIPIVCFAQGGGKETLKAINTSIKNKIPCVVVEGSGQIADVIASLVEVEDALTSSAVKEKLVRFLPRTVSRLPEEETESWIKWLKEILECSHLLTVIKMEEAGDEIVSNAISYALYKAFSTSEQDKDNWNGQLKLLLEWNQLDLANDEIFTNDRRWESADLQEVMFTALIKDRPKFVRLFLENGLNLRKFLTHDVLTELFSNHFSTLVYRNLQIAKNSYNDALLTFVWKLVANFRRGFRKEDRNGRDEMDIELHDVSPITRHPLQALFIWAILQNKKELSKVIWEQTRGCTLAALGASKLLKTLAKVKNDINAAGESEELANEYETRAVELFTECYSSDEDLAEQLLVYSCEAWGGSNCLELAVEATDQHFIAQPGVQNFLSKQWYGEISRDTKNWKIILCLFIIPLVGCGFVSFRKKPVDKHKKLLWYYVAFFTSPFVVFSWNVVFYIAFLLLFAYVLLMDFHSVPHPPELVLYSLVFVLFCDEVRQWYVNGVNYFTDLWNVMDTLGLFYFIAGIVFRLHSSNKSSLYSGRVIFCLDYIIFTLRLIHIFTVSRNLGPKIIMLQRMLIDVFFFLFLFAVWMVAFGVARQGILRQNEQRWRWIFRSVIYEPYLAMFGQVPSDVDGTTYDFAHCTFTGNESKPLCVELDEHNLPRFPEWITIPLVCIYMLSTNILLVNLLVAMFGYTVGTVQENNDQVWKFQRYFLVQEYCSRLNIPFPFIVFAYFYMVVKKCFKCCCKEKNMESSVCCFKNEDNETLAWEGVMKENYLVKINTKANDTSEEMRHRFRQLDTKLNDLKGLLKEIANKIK

Row | Compound | IC50
1 | O=C(N[C@]1(c2ccc(OC(F)(F)F)c(F)c2)CCOc2cccnc21)c1ccc2nccn2c1 [Example 52, (S)-N-(4-(3-fluoro-4-(trifluoromethoxy)phenyl)-3,4-dihydro-2H-pyrano[3,2-b]pyridin-4-yl)imidazo[1,2-a]pyridine-6-carboxamide] | 0.016 µM
2 | Cn1ncc2cc(C(=O)N[C@]3(c4ccc(OC(F)(F)F)c(F)c4)CCOc4cccnc43)ccc21 [Example 53, (S)-N-(4-(3-fluoro-4-(trifluoromethoxy)phenyl)-3,4-dihydro-2H-pyrano[3,2-b]pyridin-4-yl)-1-methyl-1H-indazole-5-carboxamide] | 0.015 µM
3 | O=C1CCc2cc(C(=O)N[C@]3(c4ccc(OC(F)(F)F)c(F)c4)CCOc4cccnc43)ccc2N1 [Example 54, (S)-N-(4-(3-fluoro-4-(trifluoromethoxy)phenyl)-3,4-dihydro-2H-pyrano[3,2-b]pyridin-4-yl)-2-oxo-1,2,3,4-tetrahydroquinoline-6-carboxamide] | 0.011 µM
4 | O=C(N[C@]1(c2ccc(OC(F)(F)F)c(F)c2)CCOc2cccnc21)c1ccc(F)cn1 [Example 55, (S)-5-fluoro-N-(4-(3-fluoro-4-(trifluoromethoxy)phenyl)-3,4-dihydro-2H-pyrano[3,2-b]pyridin-4-yl)picolinamide] | 0.022 µM
5 | O=C(N[C@]1(c2ccc(C(F)(F)F)cc2)CCOc2cccnc21)c1ccc2cccnc2c1 [Example 56, (S)-N-(4-(4-(trifluoromethyl)phenyl)-3,4-dihydro-2H-pyrano[3,2-b]pyridin-4-yl)quinoline-7-carboxamide] | 0.021 µM
6 | O=C(N[C@]1(c2ccc(OC(F)(F)F)c(F)c2)CCOc2cccnc21)c1ccc2oc(=O)[nH]c2c1 [Example 57, (S)-N-(4-(3-fluoro-4-(trifluoromethoxy)phenyl)-3,4-dihydro-2H-pyrano[3,2-b]pyridin-4-yl)-2-oxo-2,3-dihydrobenzo[d]oxazole-5-carboxamide] | 0.004 µM
7 | O=C(N[C@]1(c2ccc(C(F)(F)F)cc2)CCOc2cccnc21)c1ccc(=O)[nH]c1 [Example 60, (S)-6-oxo-N-(4-(4-(trifluoromethyl)phenyl)-3,4-dihydro-2H-pyrano[3,2-b]pyridin-4-yl)-1,6-dihydropyridine-3-carboxamide] | 0.125 µM
8 | O=C(N[C@]1(c2ccc(OC(F)(F)F)c(F)c2)CCOc2cccnc21)c1ccc([N+](=O)[O-])cn1 [Example 62, (S)-N-(4-(3-fluoro-4-(trifluoromethoxy)phenyl)-3,4-dihydro-2H-pyrano[3,2-b]pyridin-4-yl)-5-nitropicolinamide] | 0.051 µM
9 | CNC(=O)c1ccc(C(=O)N[C@]2(c3ccc(OC(F)(F)F)c(F)c3)CCOc3cccnc32)cn1 [Example 63, (S)-N5-(4-(3-fluoro-4-(trifluoromethoxy)phenyl)-3,4-dihydro-2H-pyrano[3,2-b]pyridin-4-yl)-N2-methylpyridine-2,5-dicarboxamide] | 0.019 µM
10 | O=C(N[C@]1(c2ccc(OC(F)(F)F)c(F)c2)CCOc2cccnc21)c1ccc2[nH]c(=O)c(=O)[nH]c2c1 [Example 64, (S)—N-(4-(3-fluoro-4-(trifluoromethoxy)phenyl)-3,4-dihydro-2H-pyrano[3,2-b]pyridin-4-yl)-2,3-dioxo-1,2,3,4-tetrahydroquinoxaline-6-carboxamide] | 0.335 µM
11 | CS(=O)(=O)Nc1ccc(C(=O)N[C@]2(c3ccc(OC(F)(F)F)c(F)c3)CCOc3cccnc32)nc1 [Example 65, (S)—N-(4-(3-fluoro-4-(trifluoromethoxy)phenyl)-3,4-dihydro-2H-pyrano[3,2-b]pyridin-4-yl)-5-(methylsulfonamido)picolinamide] | 0.012 µM
12 | O=C(Nc1ccc(F)nc1)N[C@]1(c2ccc(OC(F)(F)F)c(F)c2)CCOc2cccnc21 [Example 66, (S)-1-(4-(3-fluoro-4-(trifluoromethoxy)phenyl)-3,4-dihydro-2H-pyrano[3,2-b]pyridin-4-yl)-3-(6-fluoropyridin-3-yl)urea 2,2,2-trifluoroacetate] | 0.017 µM
